Data taken from patent US11530222B2, “Substituted pyrrolopyrimidine and pyrazolopyrimidine as Bruton's tyrosine kinase (BTK) degraders” (ACCUTAR BIOTECHNOLOGY INC., priority 2021, dated 2022).

What was measured:
REC-1 cells = assay: Growth inhibitory activity in BTK-dependent REC-1 cell line (CellTiter-Glo); type: cell-based; conditions: Homo sapiens, Rec1, 144 h, 6 days after administration, read-out: REC1 Cellular Grwoth Inhibition IC50
Protocol: REC-1 (ATCC) and REC-1 BTK^C481S cells were plated in 96-well plates at 8,000 cells/well in 90 ul of RPMI growth medium containing 10% heat-inactivated FBS and 1× Penicillin Streptomycin, and then incubated at 37° C. overnight. The following day, the test compound was administered to the cells by using 10× compound stock solution prepared in growth medium at various concentrations. After administration of the compound, cells were then incubated at 37° C. for 6 days. Before CellTiter-Glo assay, the plates were equilibrated at room temperature for approximately 10 minutes. 100 ul of CellTiter-Glo® Reagent (Promega) was added to each well. The plates were then incubated at room temperature for 10 minutes and luminescence was recorded by EnSpire plate reader (PerkinElmer).
The GI50 values (i.e., the concentration of test compound at which 50% of cell growth are inhibited) were calculated. A designation of “A” corresponds to a […] value less than 20 nM. A designation of “B” corresponds to a […] value greater than or equal to 20 nM and less than 200 nM. A designation of “C” corresponds to a […] value greater than or equal to 200 nM.

BTK = biological target: T1, BTK (Homo sapiens, UniProt Q06187); assay: BTK degradative activity in a RAMOS cell line (Western blot); type: cell-based; conditions: 6 hours after administration, read-out: RAMOS BTK Degradation DC50
T1 construct: BTK Degradative Activity of Exemplary Compounds of the Present Disclosure in a RAMOS Cell Line; host or cells: RAMOS
T1 sequence (Q06187 whole entry): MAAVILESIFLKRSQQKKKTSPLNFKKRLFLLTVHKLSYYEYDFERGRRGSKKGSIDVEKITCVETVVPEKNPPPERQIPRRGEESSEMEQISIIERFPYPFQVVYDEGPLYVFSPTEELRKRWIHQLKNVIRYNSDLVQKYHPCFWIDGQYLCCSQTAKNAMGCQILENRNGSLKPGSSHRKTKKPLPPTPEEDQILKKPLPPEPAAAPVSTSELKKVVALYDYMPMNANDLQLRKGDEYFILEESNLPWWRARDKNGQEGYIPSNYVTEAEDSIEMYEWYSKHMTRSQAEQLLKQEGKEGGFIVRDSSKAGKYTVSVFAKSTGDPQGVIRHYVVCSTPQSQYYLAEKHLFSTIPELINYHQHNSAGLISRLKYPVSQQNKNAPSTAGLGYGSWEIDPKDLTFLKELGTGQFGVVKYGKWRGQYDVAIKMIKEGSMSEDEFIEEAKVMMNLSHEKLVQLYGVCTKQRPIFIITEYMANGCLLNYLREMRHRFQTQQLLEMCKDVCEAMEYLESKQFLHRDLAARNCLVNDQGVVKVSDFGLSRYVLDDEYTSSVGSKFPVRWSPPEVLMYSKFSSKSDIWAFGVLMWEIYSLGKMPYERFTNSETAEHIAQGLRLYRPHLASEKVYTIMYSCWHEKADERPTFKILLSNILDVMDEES
Outline: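 Ramos cells in RPMI with 10% FBS were treated with compound in DMSO at various concentrations for 6 h at 37 °C. BTK was measured by Western blot against GAPDH with infrared fluorescent detection and band quantification. DC50 is the concentration at which 50% of BTK is degraded.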

| Structure (SMILES) | IC50 (REC-1 cells) [µM] | DC50 (BTK) [µM] |
| --- | --- | --- |
| COc1ccc(F)cc1C(=O)NCc1ccc(-c2nn(-c3ccc(N4CCC(CN5CCN(c6ccc7c(c6)C(=O)N(C6CCC(=O)NC6=O)C7=O)CC5)CC4)c(F)c3)c3ncnc(N)c23)cc1 (stereo not drawn) [Compound 50, N-(4-(4-amino-1-(4-(4-((4-(2-(2,6-dioxopiperidin-3-yl)-1,3-dioxoisoindolin-5-yl)piperazin-1-yl)methyl)piperidin-1-yl)-3-fluorophenyl)-1H-pyrazolo[3,4-d]pyrimidin-3-yl)benzyl)-5-fluoro-2-methoxybenzamide] | < 0.02 | 0.01 to 0.1 |
| COc1ccc(F)cc1C(=O)NCc1ccc(-c2nn(-c3ccc(N4CCC(CN5CCN(c6cc7c(cc6F)C(=O)N([C@H]6CCC(=O)NC6=O)C7)CC5)CC4)c(F)c3)c3ncnc(N)c23)cc1 [Compound 51, (S)—N-(4-(4-amino-1-(4-(4-((4-(2-(2,6-dioxopiperidin-3-yl)-6-fluoro-1-oxoisoindolin-5-yl)piperazin-1-yl)methyl)piperidin-1-yl)-3-fluorophenyl)-1H-pyrazolo[3,4-d]pyrimidin-3-yl)benzyl)-5-fluoro-2-methoxybenzamide] | < 0.02 | < 0.01 |
| COc1ccc(F)cc1C(=O)NCc1ccc(-c2nn(C3CCN(c4ccc(CN5CCN(c6ccc7c(c6)CN([C@H]6CCC(=O)NC6=O)C7=O)CC5)cn4)CC3)c3ncnc(N)c23)cc1 [Compound 52, (S)—N-(4-(4-amino-1-(1-(5-((4-(2-(2,6-dioxopiperidin-3-yl)-1-oxoisoindolin-5-yl)piperazin-1-yl)methyl)pyridin-2-yl)piperidin-4-yl)-1H-pyrazolo[3,4-d]pyrimidin-3-yl)benzyl)-5-fluoro-2-methoxybenzamide] | < 0.02 | < 0.01 |
| COc1ccc(F)cc1C(=O)NCc1ccc(-c2nn(C3CCN(c4ccc(CN5CCN(c6ccc7c(c6)CN([C@H]6CCC(=O)NC6=O)C7=O)CC5)cc4)CC3)c3ncnc(N)c23)cc1 [Compound 53, (S)—N-(4-(4-amino-1-(1-(4-((4-(2-(2,6-dioxopiperidin-3-yl)-1-oxoisoindolin-5-yl)piperazin-1-yl)methyl)phenyl)piperidin-4-yl)-1H-pyrazolo[3,4-d]pyrimidin-3-yl)benzyl)-5-fluoro-2-methoxybenzamide] | < 0.02 | < 0.01 |
| COc1ccc(F)cc1C(=O)NCc1ccc(-c2nn(C3CN(c4ccc(CN5CCN(c6ccc7c(c6)CN([C@H]6CCC(=O)NC6=O)C7=O)CC5)cn4)C3)c3ncnc(N)c23)cc1 [Compound 54, (S)—N-(4-(4-amino-1-(1-(5-((4-(2-(2,6-dioxopiperidin-3-yl)-1-oxoisoindolin-5-yl)piperazin-1-yl)methyl)pyridin-2-yl)azetidin-3-yl)-1H-pyrazolo[3,4-d]pyrimidin-3-yl)benzyl)-5-fluoro-2-methoxybenzamide] | < 0.02 | < 0.01 |
| COc1ccc(F)cc1C(=O)NCc1ccc(-c2nn(C3CCN(C(=O)CCCCN4CCN(c5ccc6c(c5)CN([C@H]5CCC(=O)NC5=O)C6=O)CC4)C3)c3ncnc(N)c23)cc1 (stereo partly drawn) [Compound 55, N-(4-(4-amino-1-(1-(5-(4-(2-((S)-2,6-dioxopiperidin-3-yl)-1-oxoisoindolin-5-yl)piperazin-1-yl)pentanoyl)pyrrolidin-3-yl)-1H-pyrazolo[3,4-d]pyrimidin-3-yl)benzyl)-5-fluoro-2-methoxybenzamide] | ≥ 0.2 | 0.01 to 0.1 |
| COc1ccc(F)cc1C(=O)NCc1ccc(-c2nn(C3CCN(c4ccc(CN5CCN(c6ccc7c(c6)CN([C@H]6CCC(=O)NC6=O)C7=O)CC5)nc4)C3)c3ncnc(N)c23)cc1 (stereo partly drawn) [Compound 58, N-(4-(4-amino-1-(1-(6-((4-(2-((S)-2,6-dioxopiperidin-3-yl)-1-oxoisoindolin-5-yl)piperazin-1-yl)methyl)pyridin-3-yl)pyrrolidin-3-yl)-1H-pyrazolo[3,4-d]pyrimidin-3-yl)benzyl)-5-fluoro-2-methoxybenzamide] | ≥ 0.2 | ≥ 0.1 |
| COc1ccc(C(=O)N2CCN(CCCCCC(=O)N3CCC(Nc4ncnc5[nH]cc(C(=O)c6ccc(Oc7ccccc7)cc6Cl)c45)CC3)CC2)cc1N1CCC(=O)NC1=O [Compound 71, 1-(5-(4-(6-(4-((5-(2-chloro-4-phenoxybenzoyl)-7H-pyrrolo[2,3-d]pyrimidin-4-yl)amino)piperidin-1-yl)-6-oxohexyl)piperazine-1-carbonyl)-2-methoxyphenyl) dihydropyrimidine-2,4(1H,3H)-dione] | – | 0.01 to 0.1 |
| COc1ccc(C(=O)N2CCN(CCCCC(=O)N3CCC(Nc4ncnc5[nH]cc(C(=O)c6ccc(Oc7ccccc7)cc6Cl)c45)CC3)CC2)cc1N1CCC(=O)NC1=O [Compound 72, 1-(5-(4-(5-(4-((5-(2-chloro-4-phenoxybenzoyl)-7H-pyrrolo[2,3-d]pyrimidin-4-yl)amino)piperidin-1-yl)-5-oxopentyl)piperazine-1-carbonyl)-2-methoxyphenyl)dihydropyrimidine-2,4(1H,3H)-dione] | – | ≥ 0.1 |
| COc1ccc(C(=O)N2CCC(N3CCC(CC(=O)N4CCC(Nc5ncnc6[nH]cc(C(=O)c7ccc(Oc8ccccc8)cc7Cl)c56)CC4)CC3)CC2)cc1N1CCC(=O)NC1=O [Compound 73, 1-(5-(4-(2-(4-((5-(2-chloro-4-phenoxybenzoyl)-7H-pyrrolo[2,3-d]pyrimidin-4-yl)amino)piperidin-1-yl)-2-oxoethyl)-[1,4′-bipiperidine]-1′-carbonyl)-2-methoxyphenyl)dihydropyrimidine-2,4(1H,3H)-dione] | – | 0.01 to 0.1 |
| COc1ccc(C(=O)N2CCN(CC3CCN(c4ccc(Nc5ncnc6[nH]cc(C(=O)c7ccc(Oc8ccccc8)cc7Cl)c56)cc4F)CC3)CC2)cc1N1CCC(=O)NC1=O [Compound 74, 1-(5-(4-((1-(4-((5-(2-chloro-4-phenoxybenzoyl)-7H-pyrrolo[2,3-d]pyrimidin-4-yl)amino)-2-fluorophenyl)piperidin-4-yl)methyl)piperazine-1-carbonyl)-2-methoxyphenyl)dihydropyrimidine-2,4(1H,3H)-dione] | – | ≥ 0.1 |
| COc1ccc(C(=O)N2CCCN(CC3CCN(c4ccc(Nc5ncnc6[nH]cc(C(=O)c7ccc(Oc8ccccc8)cc7Cl)c56)cc4F)CC3)CC2)cc1N1CCC(=O)NC1=O [Compound 75, 1-(5-(4-((1-(4-((5-(2-chloro-4-phenoxybenzoyl)-7H-pyrrolo[2,3-d]pyrimidin-4-yl)amino)-2-fluorophenyl)piperidin-4-yl)methyl)-1,4-diazepane-1-carbonyl)-2-methoxyphenyl)dihydropyrimidine-2,4(1H,3H)-dione] | – | 0.01 to 0.1 |
| COc1ccc(C(=O)N2CCN(CCC3CCN(c4ccc(Nc5ncnc6[nH]cc(C(=O)c7ccc(Oc8ccccc8)cc7Cl)c56)cc4F)CC3)CC2)cc1N1CCC(=O)NC1=O [Compound 76, 1-(5-(4-(2-(1-(4-((5-(2-chloro-4-phenoxybenzoyl)-7H-pyrrolo[2,3-d]pyrimidin-4-yl)amino)-2-fluorophenyl)piperidin-4-yl)ethyl)piperazine-1-carbonyl)-2-methoxyphenyl)dihydropyrimidine-2,4(1H,3H)-dione] | – | ≥ 0.1 |
| COc1ccc(C(=O)N2CCC(N3CCC(CC(=O)N4CCC[C@@H](Nc5ncnc6[nH]cc(C(=O)c7ccc(Oc8ccccc8)cc7Cl)c56)C4)CC3)CC2)cc1N1CCC(=O)NC1=O [Compound 77, (R)-1-(5-(4-(2-(3-((5-(2-chloro-4-phenoxybenzoyl)-7H-pyrrolo[2,3-d]pyrimidin-4-yl)amino)piperidin-1-yl)-2-oxoethyl)-[1,4′-bipiperidine]-1′-carbonyl)-2-methoxyphenyl) dihydropyrimidine-2,4(1H,3H)-dione] | – | ≥ 0.1 |
| COc1ccc(C(=O)N2CCN(CCCCCCC(=O)N3CCC(Nc4ncnc5[nH]cc(C(=O)c6ccc(Oc7ccccc7)cc6Cl)c45)CC3)CC2)cc1N1CCC(=O)NC1=O [Compound 78, 1-(5-(4-(7-(4-((5-(2-chloro-4-phenoxybenzoyl)-7H-pyrrolo[2,3-d]pyrimidin-4-yl)amino)piperidin-1-yl)-7-oxoheptyl)piperazine-1-carbonyl)-2-methoxyphenyl)dihydropyrimidine-2,4(1H,3H)-dione] | – | < 0.01 |
| COc1ccc(C(=O)N2CCCN(Cc3ccc(C(=O)N4CCC(Nc5ncnc6[nH]cc(C(=O)c7ccc(Oc8ccccc8)cc7Cl)c56)CC4)cc3)CC2)cc1N1CCC(=O)NC1=O [Compound 79, 1-(5-(4-(4-(4-((5-(2-chloro-4-phenoxybenzoyl)-7H-pyrrolo[2,3-d]pyrimidin-4-yl)amino)piperidine-1-carbonyl)benzyl)-1,4-diazepane-1-carbonyl)-2-methoxyphenyl)dihydropyrimidine-2,4(1H,3H)-dione] | – | ≥ 0.1 |
| COc1ccc(C(=O)N2CCN(Cc3ccc(C(=O)N4CCC(Nc5ncnc6[nH]cc(C(=O)c7ccc(Oc8ccccc8)cc7Cl)c56)CC4)cc3)CC2)cc1N1CCC(=O)NC1=O [Compound 80, 1-(5-(4-(4-(4-((5-(2-chloro-4-phenoxybenzoyl)-7H-pyrrolo[2,3-d]pyrimidin-4-yl)amino)piperidine-1-carbonyl)benzyl)piperazine-1-carbonyl)-2-methoxyphenyl)dihydropyrimidine-2,4(1H,3H)-dione] | – | ≥ 0.1 |
